From article PMC7230820, “Anti-Inflammatory Effects of Fucoxanthinol in LPS-Induced RAW264.7 Cells through the NAAA-PEA Pathway” (Marine Drugs, 2020) come the findings set out here.

Assay [1] has as its target T1, fatty acid amide hydrolase (FAAH) (Homo sapiens, UniProt O00519).
T1 sequence (O00519 1-579): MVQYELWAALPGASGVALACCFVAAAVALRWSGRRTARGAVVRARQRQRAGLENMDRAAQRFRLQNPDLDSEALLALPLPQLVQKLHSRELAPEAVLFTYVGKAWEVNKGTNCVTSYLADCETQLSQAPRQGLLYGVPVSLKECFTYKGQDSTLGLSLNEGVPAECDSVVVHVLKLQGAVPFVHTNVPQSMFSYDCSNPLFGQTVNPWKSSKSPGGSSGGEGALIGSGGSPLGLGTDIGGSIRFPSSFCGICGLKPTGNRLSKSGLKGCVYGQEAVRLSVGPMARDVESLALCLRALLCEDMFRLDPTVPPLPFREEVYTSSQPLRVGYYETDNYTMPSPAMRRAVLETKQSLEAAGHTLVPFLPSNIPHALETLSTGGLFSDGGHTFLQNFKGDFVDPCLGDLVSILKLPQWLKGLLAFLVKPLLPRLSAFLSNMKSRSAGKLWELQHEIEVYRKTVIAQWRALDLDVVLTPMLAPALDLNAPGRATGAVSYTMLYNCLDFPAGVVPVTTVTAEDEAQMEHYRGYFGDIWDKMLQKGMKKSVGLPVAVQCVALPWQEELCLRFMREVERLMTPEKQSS
Description: recombinant enzyme activity assay, anandamide substrate, pH […]. The assay is classed as biochemical.

The target in assay [2] is T2, N-acylethanolamine acid amidase (NAAA) (Homo sapiens, UniProt Q02083).
T2 sequence (Q02083 29-125): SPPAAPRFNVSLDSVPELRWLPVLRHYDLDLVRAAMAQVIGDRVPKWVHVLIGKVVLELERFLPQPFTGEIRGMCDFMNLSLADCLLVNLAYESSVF
T2 sequence (Q02083 126-359): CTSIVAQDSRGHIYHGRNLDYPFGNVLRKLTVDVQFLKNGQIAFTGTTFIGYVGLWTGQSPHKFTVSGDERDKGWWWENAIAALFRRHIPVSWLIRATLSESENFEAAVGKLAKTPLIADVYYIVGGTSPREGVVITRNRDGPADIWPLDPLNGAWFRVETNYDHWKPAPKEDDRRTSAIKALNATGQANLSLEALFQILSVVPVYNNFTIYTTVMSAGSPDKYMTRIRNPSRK
The assay is described as follows: recombinant enzyme activity assay, heptaenyl ethanolamide substrate, pH […]. The format is biochemical.

The IC50 is the concentration that gives 50% inhibition. Regarding `C\C(C=C=C1C(C)(C)C[C@H](O)C[C@@]1(C)O)=C/C=C/C(C)=C/C=C/C=C(C)/C=C/C=C(\C)C(=O)C[C@@]12O[C@]1(C)C[C@@H](O)CC2(C)C` [FXOH, Fucoxanthinol], the IC50 worked out at 42.4 ± 1.11 µM in assay [1] and 12.8 ± 1.12 µM in assay [2].

With `CC(=O)O[C@H]1CC(C)(C)C(=C=C/C(C)=C/C=C/C(C)=C/C=C/C=C(C)/C=C/C=C(\C)C(=O)C[C@@]23O[C@]2(C)C[C@@H](O)CC3(C)C)[C@](C)(O)C1` [FX, Fucoxanthin], the IC50 in assay [2] was determined as 31.4 ± 1.06 µM.
